Experimental findings from patent publication US20240043400A1, “Octahydroisoquinolinyl Derivatives” (UCB Biopharma SRL, priority 2020, published 2024) are described below.

Data set [1] deals with T1, dopamine D1 receptor (Homo sapiens, UniProt P21728).
T1 construct: host or cells: LMtk (Ltk-) mouse fibroblast cells, kept under Geneticin
Put plainly: cAMP HTRF potentiation assay (in the presence of dopamine). Format: cell-based. The note with it: potentiation of cAMP with [EC20] of dopamine (1.1 nM); LMtk (Ltk−) mouse fibroblast cells expressing the dopamine D1 receptor. How it is done: The potentiation assay measures the ability of compounds to increase the levels of cAMP produced by a low-threshold concentration of dopamine. The concentration of dopamine used ([EC20]) is designed to produce 20% stimulation compared to the maximal response (100%) seen with increasing the concentration of dopamine. To measure this potentiation we incubate increasing concentrations of the compound with the [EC20] of dopamine and measure the potentiation as increases in cAMP production. The pEC50 of a compound is the −log 10 of the concentration of the compound which produces 50% of the potentiation of the cAMP levels and the Erel is the relative efficacy, defined as the maximal % potentiation produced by the compound compared to the maximal response produced by increasing concentrations of dopamine (Erel of 1=dopamine maximum response).
Cells were cultured at 37° C. in a humidified atmosphere of 5% CO2. Cells were grown in DMEM-F12+GlutaMAX™-1 medium (GIBCO®, Invitrogen, Merelbeke, Belgium) containing 10% fetal bovine serum (BioWhittaker®, Lonza, Verviers, Belgium), 400 μg/mL Geneticin (GIBCO®), 100 IU/mL Penicillin and 100 IU/mL Streptomycin (Pen-Strep solution, BioWhittaker®).
The measurement of changes in intracellular cyclic adenosinemonophopshpate (cAMP) was determined using the HTRF cAMP dynamic assay kit from CisBio (Codolet, France). Using homogenous time-resolved fluoresence technology, the assay is based on competition between native cAMP produced by cells and cAMP labelled with the dye d2. The tracer binding is determined by an anti-cAMP antibody labeled with cryptate. The effects of the compound alone (agonism) was determined by performing the assay in the absence of dopamine, whilst the effect of the compound as a positive allosteric modulator (PAM) was determined in the presence of an EC20 concentration of dopamine. Cells (20,000 per well) are incubated in 384 plates for 1 h at rt in a final volume of 20 μLHBSS (Lonza, with calcium, magnesium and HEPES buffer 20 mM, pH 7.4) containing: isobutyl methylxanthine (Sigma, 0.1 mM final), varying concentrations of test compound (typically 10^−9.5 M to 10^−4.5 M) in the presence and absence of dopamine (1.1 nM final). The reaction is then terminated and the cells lysed by adding the d2 detection reagent in lysis buffer (10 μL) and the cryptate reagent in lysis buffer (10 μL) according to manufacturer's instructions. This is then incubated for a further 60 min at rt and changes in HTRF fluorescent emission ratio determined according to manufacturer's instructions using an Envision plate reader (Perkin Elmer, Zaventem, Belgium) with laser excitation. All incubations were performed in duplicate and results were compared to a concentration-effect curve to dopamine. (10^−11 M to 10^−6 M).
Data was analyzed using Excel and PRISM (GraphPad Software) to obtain pEC50 and Erel using the 4-parameter logistic equation (DeLean et al, 1978) where Erel is the fitted maximal response of the test compound minus basal expressed as a percentage relative to that obtained with dopamine which was defined as 100%.
On the technique in general: Time-resolved FRET reads energy transfer from a long-lived donor to a nearby acceptor.

Data set [2] addresses T2, human GABAA receptor α1β2 and γ2 subunits (Homo sapiens, UniProt P14867+P18507+P47870).
T2 construct: expressed in transfected cells
Briefly: Automated patch clamp studies on the GABAA receptor cells. The note with it: 15 μM GABA, Table B; for inhibition at 10 µM: CHO-K1, 10 μM compound; for % GABAA inhibition: 10 μM compound, CHO-K1 cells. Format: cell-based. How it is done: CHO-K1 cells stably expressing human GABAA receptor α1β2 and γ2 subunits were used. The cells were harvested using trypsin and maintained in serum-free medium at room temperature. The cells were washed and re-suspended in extracellular solution before testing.
Experiments on human GABAA (α1β2γ2) channels were conducted using an automated patch clamp assay (lonFlux™ HT). The external solution for recording GABAA currents was composed of sodium chloride 137 mM, potassium chloride 4 mM, calcium chloride 1.8 mM, magnesium chloride 1 mM, HEPES 10 mM, and glucose 10 mM. Both external and internal solutions were titrated with NaOH or KOH to obtain a pH of 7.35 and 7.3, respectively. The internal pipette solution contained potassium fluoride 70 mM, potassium chloride 60 mM, sodium chloride 70 mM, HEPES 5 mM, EGTA 5 mM, and Magnesium ATP 4 mM. The final concentration of vehicle used to dilute compounds was 0.33% DMSO in each well. Bicuculline (0.032 to 100 μM) was used as positive control inhibitor. GABA (15 μM) was used as agonist. All recordings were obtained from a holding potential of −60 mV.
The compound addition sequence was the following: one addition of the EC80 concentration of GABA was added to establish baseline response. Each concentration of compound was applied for 30 seconds followed by the addition of 15 μM GABA in the presence of the compound for 2 seconds. The process was repeated with the next ascending concentration of compound. Peak inward currents in response to the GABA additions in the presence of a single concentration of compound were measured. All compound data have been normalized to the baseline peak current induced by addition of 15 μM GABA for 2 seconds.
For orientation: In patch-clamp work, channel activity is measured electrically.

Data set [3] addresses T3, CYP3A4 (Homo sapiens, UniProt P08684).
T3 construct: cryopreserved human microsomes (pooled donors); from tissue
Put plainly: In vitro assessment of CYP3A4 inhibition potential using cryopreserved human microsomes. The note with it: 20 μM compound, human microsomes 0.25 mg/ml, Table C; for inhibition at 15 min, 20 μM: human, cryopreserved human microsomes (pooled donors), probe midazolam 2.5 μM (1-hydroxymidazolam formation); for % CYP3A4 inhibition: midazolam 2.5 μM. Format: in vitro ADME. On the procedure:
The objective of the human microsome assay is to characterize the inhibition potential of Compound of formula (I) by measuring the CYP3A4 activities after its co-incubation with midazolam, a specific CYP3A4 substrate.
To this aim, cryopreserved human microsomes (pooled donors) are divided on a 48 well collagen coated plate so that the final concentration is 0.25 mg/ml. The UCB compound is then added in the wells at 20 μM concentration in duplicate. After 30 min incubation, midazolam is added at 2.5 μM concentration. After 15 min, an aliquot is removed and placed into an equal volume of methanol containing internal standard. The samples are centrifuged at 2500 rpm at 4° C. for 20 min. An aliquot of supernatant is diluted with deionised water and levels of 1-hydroxymidazolam is quantified using generic LC MS/MS methods.
The concentrations are compared to those obtained after midazolam incubation at the same concentration but without UCB compound pre-incubation. The results are expressed as % of inhibition.

A value given as a limit tells only on which side of the number the result lay.

T2 sequence (P14867 28-456): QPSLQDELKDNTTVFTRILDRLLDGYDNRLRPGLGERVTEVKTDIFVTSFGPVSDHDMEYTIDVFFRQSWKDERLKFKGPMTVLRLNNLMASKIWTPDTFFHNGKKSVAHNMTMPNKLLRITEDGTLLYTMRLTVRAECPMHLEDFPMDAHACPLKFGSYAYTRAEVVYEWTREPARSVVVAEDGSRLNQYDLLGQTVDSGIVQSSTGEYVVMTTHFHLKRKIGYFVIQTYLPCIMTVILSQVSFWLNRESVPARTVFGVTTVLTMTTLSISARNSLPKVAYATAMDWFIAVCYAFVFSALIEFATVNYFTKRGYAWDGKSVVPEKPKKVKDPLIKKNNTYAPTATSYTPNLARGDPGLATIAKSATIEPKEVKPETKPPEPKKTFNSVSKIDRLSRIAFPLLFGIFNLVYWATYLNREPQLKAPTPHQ
T2 sequence (P47870 25-512 limits assumed): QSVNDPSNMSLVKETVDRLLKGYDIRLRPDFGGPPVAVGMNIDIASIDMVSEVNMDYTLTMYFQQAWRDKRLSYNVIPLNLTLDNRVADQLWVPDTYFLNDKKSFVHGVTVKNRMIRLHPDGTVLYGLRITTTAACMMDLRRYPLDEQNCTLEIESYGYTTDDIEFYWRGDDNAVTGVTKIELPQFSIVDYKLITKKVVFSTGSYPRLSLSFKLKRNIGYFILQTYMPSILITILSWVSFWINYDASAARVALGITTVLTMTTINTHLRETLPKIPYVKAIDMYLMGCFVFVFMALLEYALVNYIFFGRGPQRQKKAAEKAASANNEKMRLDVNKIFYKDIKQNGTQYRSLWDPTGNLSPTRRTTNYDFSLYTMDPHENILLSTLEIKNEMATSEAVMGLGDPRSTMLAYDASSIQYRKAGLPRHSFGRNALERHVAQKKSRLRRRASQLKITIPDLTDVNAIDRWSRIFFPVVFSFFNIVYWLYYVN
T2 sequence (P18507 40-475): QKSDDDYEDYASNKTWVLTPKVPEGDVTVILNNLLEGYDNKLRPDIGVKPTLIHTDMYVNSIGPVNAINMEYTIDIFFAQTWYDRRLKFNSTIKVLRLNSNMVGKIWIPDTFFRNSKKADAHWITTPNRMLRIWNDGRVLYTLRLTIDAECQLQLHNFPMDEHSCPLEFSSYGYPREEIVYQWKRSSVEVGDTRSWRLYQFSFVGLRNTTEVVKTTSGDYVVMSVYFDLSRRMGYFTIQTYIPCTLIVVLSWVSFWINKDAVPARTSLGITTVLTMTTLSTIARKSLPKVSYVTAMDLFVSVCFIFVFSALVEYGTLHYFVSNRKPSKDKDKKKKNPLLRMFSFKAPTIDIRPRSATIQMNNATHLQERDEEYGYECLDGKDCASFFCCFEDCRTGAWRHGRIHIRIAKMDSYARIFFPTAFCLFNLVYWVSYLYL
T3 sequence (P08684 whole entry): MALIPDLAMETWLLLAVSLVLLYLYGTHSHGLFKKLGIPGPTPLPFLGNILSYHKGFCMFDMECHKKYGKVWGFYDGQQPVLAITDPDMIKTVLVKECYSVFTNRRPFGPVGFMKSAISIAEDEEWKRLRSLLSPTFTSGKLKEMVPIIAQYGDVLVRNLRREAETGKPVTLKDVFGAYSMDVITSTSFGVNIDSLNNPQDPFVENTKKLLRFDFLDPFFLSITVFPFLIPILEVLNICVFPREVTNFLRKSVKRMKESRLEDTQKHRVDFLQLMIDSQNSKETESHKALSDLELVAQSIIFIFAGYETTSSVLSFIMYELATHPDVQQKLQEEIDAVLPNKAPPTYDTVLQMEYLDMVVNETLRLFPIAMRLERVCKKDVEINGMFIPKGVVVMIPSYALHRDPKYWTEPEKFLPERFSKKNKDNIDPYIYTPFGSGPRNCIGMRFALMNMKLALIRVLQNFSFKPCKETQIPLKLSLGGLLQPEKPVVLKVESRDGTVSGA
T1 sequence (P21728 whole entry): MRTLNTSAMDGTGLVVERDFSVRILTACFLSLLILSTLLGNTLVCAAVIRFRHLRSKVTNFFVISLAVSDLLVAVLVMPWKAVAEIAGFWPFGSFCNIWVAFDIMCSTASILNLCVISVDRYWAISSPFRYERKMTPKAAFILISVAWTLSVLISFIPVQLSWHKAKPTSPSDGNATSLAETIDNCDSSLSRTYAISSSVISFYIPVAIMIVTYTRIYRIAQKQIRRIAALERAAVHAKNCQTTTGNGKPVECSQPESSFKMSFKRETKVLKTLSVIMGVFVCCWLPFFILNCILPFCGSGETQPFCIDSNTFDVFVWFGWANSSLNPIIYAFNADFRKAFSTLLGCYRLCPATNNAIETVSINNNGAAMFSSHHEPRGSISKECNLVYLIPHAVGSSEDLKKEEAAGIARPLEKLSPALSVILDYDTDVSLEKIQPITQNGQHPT

For the compound `COc1ccc(C#N)c(CC(=O)N2CC[C@@H]3[C@H](CCC[C@H]3C(O)C(F)F)[C@@H]2C)c1Cl` (single isomer, unassigned) [Example 6-A], in data set [1], the EC50 (as a rule, the concentration at which the effect is half-maximal) is 50.1 nM. Besides, in data set [2], testing at 10 µM gave an inhibition of 8.6%. Moreover, in data set [3], the inhibition (commonly the share of the control response that was lost under treatment) at 15 min, 20 μM was 20 to 40%.

On to `COc1ccc(C#N)c(CC(=O)N2CC[C@@H]3[C@H](CCC[C@H]3C(O)C(F)F)[C@@H]2C)c1Cl` (single isomer, unassigned) [Example 6-B], for which the concentration giving a half-maximal response (EC50) in data set [1] was 200 nM. The “% GABAA inhibition” value in data set [2] is 10.9%. Moreover, the “% CYP3A4 inhibition” value in data set [3] is “++++ (A percentage of inhibition greater than about 20% and lower than or equal to about 40% is indicated by ++++.)”.

For the compound `COc1ccc(C#N)c(CC(=O)N2CC[C@@H]3[C@H](CCC[C@H]3C(C)(O)C(F)(F)F)[C@@H]2C)c1Cl` (single isomer, unassigned) [Example 7-A], the 50% effective concentration (EC50) in data set [1] was 251 nM. Further, the “% GABAA inhibition” value in data set [2] was determined as 7.4%. In addition, in data set [3], the inhibition at 15 min, 20 μM lay in the range of 20 to 40%.

In the case of `C[C@H]1[C@H]2CCCC([C@@H](O)C(F)(F)F)[C@@H]2CCN1C(=O)Cc1c(Cl)ccc2c1c(Cl)nn2C` (single isomer, unassigned) [Example 8-A], in data set [1], the EC50 was 79.4 nM. Also, the “% GABAA inhibition” value in data set [2] is 2.0%. In addition, the inhibition at 15 min, 20 μM in data set [3] lay in the range of 20 to 40%.

For `C[C@H]1[C@H]2CCCC([C@@H](O)C(F)(F)F)[C@@H]2CCN1C(=O)Cc1c(Cl)ccc2c1c(Cl)nn2C` (single isomer, unassigned) [Example 8-B], the 50% effective concentration (EC50) in data set [1] is 126 nM. In addition, the “% GABAA inhibition” value in data set [2] is reported as −1.2%. The “% CYP3A4 inhibition” value in data set [3] is “+++ (A percentage of inhibition greater than about 40% and lower than or equal to about 60% is indicated by +++.)”.

In the case of `CC(O)c1ncc(Cl)c(CC(=O)N2CC[C@H]3[C@H]([C@H](O)C(F)(F)F)CCC[C@@H]3[C@@H]2C)c1Cl` (single isomer, unassigned) [Example 9-A], in data set [1], the EC50 was 39.8 nM. In data set [2], the “% GABAA inhibition” value is reported as −14.1%. The compound also had an inhibition at 15 min, 20 μM in data set [3] of 20 to 40%.

Take `CC(O)c1ncc(Cl)c(CC(=O)N2CC[C@H]3[C@H]([C@H](O)C(F)(F)F)CCC[C@@H]3[C@@H]2C)c1Cl` (single isomer, unassigned) [Example 9-B]: the 50% effective concentration (EC50) in data set [1] is 25.1 nM. Further, in data set [2], the “% GABAA inhibition” value was −8.4%. The “% CYP3A4 inhibition” value in data set [3] was “++++ (A percentage of inhibition greater than about 20% and lower than or equal to about 40% is indicated by ++++.)”.

Consider `C[C@H]1[C@H]2CCC[C@@H]([C@H](O)C(F)(F)F)[C@@H]2CCN1C(=O)Cc1c(Cl)cnc(C(O)C(F)F)c1Cl` (single isomer, unassigned) [Example 15-A], for which the EC50 in data set [1] was 39.8 nM. For the same compound, the inhibition at 15 min, 20 μM in data set [3] is at most 20%.

As to `COc1ccc(C#N)c(CC(=O)N2CC[C@H]3[C@H]([C@H](O)C(F)(F)F)CCC[C@@H]3[C@@H]2C)c1Cl` [Example 1-A, 2-[2-[(1S,4aR,5R,8aS)-1-methyl-5-[(1S)-2,2,2-trifluoro-1-hydroxy-ethyl]-3,4,4a,5,6,7,8,8a-octahydro-1H-isoquinolin-2-yl]-2-oxo-ethyl]-3-chloro-4-methoxybenzonitrile], the EC50 in data set [1] was 31.6 nM. Besides, in data set [2], the inhibition at 10 µM turned out to be 11.2%. Further, the inhibition at 15 min, 20 μM in data set [3] fell in the range of 60 to 70%.

With `COc1ccc(C#N)c(CC(=O)N2CC[C@H]3[C@H]([C@@H](O)C(F)(F)F)CCC[C@@H]3[C@@H]2C)c1Cl` [Example 1-B, 2-[2-[(1S,4aR,5R,8aS)-1-methyl-5-[(1R)-2,2,2-trifluoro-1-hydroxy-ethyl]-3,4,4a,5,6,7,8,8a-octahydro-1H-isoquinolin-2-yl]-2-oxo-ethyl]-3-chloro-4-methoxybenzonitrile], in data set [1], the concentration for a half-maximal effect (EC50) was 398 nM. The compound also yielded an inhibition at 10 µM in data set [2] of 4.9%. Further, the inhibition at 15 min, 20 μM in data set [3] lay in the range of 40 to 60%.

For `COc1ccc(Cl)c(CC(=O)N2CC[C@H]3[C@H]([C@H](O)C(F)(F)F)CCC[C@@H]3[C@@H]2C)c1C#N` [Example 2, 2-[2-[(1S,4aR,5R,8aS)-1-methyl-5-[(1S)-2,2,2-trifluoro-1-hydroxyethyl]-3,4,4a,5,6,7,8,8a-octahydro-1H-isoquinolin-2-yl]-2-oxoethyl]-3-chloro-6-methoxybenzonitrile], in data set [1], the half-maximal effective concentration (EC50) is 39.8 nM. In data set [2], this compound gave an inhibition at 10 µM of 0%. This compound had an inhibition at 15 min, 20 μM in data set [3] of 20 to 40%.

On to `COc1ncc(Cl)c(CC(=O)N2CC[C@H]3[C@H]([C@H](O)C(F)(F)F)CCC[C@@H]3[C@@H]2C)c1Cl` [Example 3, 1-[(1S,4aR,5R,8aS)-1-methyl-5-[(1S)-2,2,2-trifluoro-1-hydroxy-ethyl]-3,4,4a,5,6,7,8,8a-octahydro-1H-isoquinolin-2-yl]-2-(3,5-dichloro-2-methoxypyridin-4-yl)ethanone], for which the EC50 in data set [1] was 25.1 nM. The compound further showed an inhibition at 10 µM in data set [2] of 13.8%. The same compound yielded an inhibition at 15 min, 20 μM in data set [3] of 60 to 70%.

In the case of `C[C@H]1[C@H]2CCC[C@@H]([C@H](O)C(F)(F)F)[C@@H]2CCN1C(=O)Nc1c(Cl)cccc1Cl` [Example 10, (1S,4aR,5R,8aS)—N-(2,6-dichlorophenyl)-1-methyl-5-[(1S)-2,2,2-trifluoro-1-hydroxy-ethyl]-3,4,4a,5,6,7,8,8a-octahydro-1H-isoquinoline-2-carboxamide], the EC50 in data set [1] is 12.6 nM. Further, at 10 µM the inhibition in data set [2] was 8.5%. Also, the inhibition at 15 min, 20 μM in data set [3] was in the range of 20 to 40%.

For `C[C@H]1[C@H]2CCC[C@@H]([C@H](O)C(F)(F)F)[C@@H]2CCN1C(=O)Cc1c(Cl)ccc2nnc(Cl)n12` [Example 11, 1-[(1 S,4aR,5R,8aS)-1-methyl-5-[(1 S)-2,2,2-trifluoro-1-hydroxy-ethyl]-3,4,4a,5,6,7,8,8a-octahydro-1H-isoquinolin-2-yl]-2-(3,6-dichloro-[1,2,4]triazolo[4,3-a]pyridin-5-yl)ethanone], the EC50 in data set [1] is 63.1 nM. For the same compound, in data set [2], the inhibition at 10 µM came out at 6%. The inhibition at 15 min, 20 μM in data set [3] fell in the range of 70 to 80%.
